Molecules are shown by their SMILES.

In test [1] the target is T1, dvUT (Nitratidesulfovibrio vulgaris, UniProt Q72CX3).
T1 sequence (Q72CX3 1-337): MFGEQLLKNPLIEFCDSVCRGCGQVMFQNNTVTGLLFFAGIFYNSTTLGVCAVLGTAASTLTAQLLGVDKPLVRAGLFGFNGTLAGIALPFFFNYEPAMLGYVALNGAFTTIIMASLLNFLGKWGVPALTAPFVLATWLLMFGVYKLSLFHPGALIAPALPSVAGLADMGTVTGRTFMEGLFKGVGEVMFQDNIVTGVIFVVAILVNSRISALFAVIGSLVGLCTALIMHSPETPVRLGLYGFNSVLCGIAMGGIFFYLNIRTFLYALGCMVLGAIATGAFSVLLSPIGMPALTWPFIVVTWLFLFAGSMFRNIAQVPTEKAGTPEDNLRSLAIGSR
The experiment in a line: scintillation proximity saturation binding, Hill fit.

In test [2] the target is T1, dvUT. The experiment in a line: SPA isotopic dilution of […]-urea. The test is classed as binding.
The target of test [3] is T1, dvUT. As to the kind of experiment: […]-urea uptake in Xenopus oocytes. The test is classed as cell-based. Conditions: read-out: % inhibition at 1 mM.
Another test has as its target T2, human UT-B (Homo sapiens, UniProt Q13336).
T2 sequence (Q13336 1-389): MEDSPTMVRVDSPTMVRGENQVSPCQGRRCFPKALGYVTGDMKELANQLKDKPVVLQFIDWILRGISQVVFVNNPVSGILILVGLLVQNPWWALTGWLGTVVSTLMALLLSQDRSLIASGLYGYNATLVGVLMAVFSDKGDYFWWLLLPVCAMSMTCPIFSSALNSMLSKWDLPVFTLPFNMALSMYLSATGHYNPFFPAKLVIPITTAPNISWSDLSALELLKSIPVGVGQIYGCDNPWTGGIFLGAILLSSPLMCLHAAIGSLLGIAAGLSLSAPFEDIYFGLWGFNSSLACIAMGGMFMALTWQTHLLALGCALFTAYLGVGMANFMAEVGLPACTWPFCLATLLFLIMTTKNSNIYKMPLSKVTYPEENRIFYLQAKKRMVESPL
As to the kind of experiment: […]-urea uptake in Xenopus oocytes. Format: cell-based. Conditions: read-out: % inhibition at 1 mM.

By Kd is commonly meant the concentration at which binding is half-saturated. As a reminder, the IC50 is the point on the concentration scale where inhibition reaches its midpoint. Higher therefore signals weaker potency in that assay. Take `NC(N)=O` [urea]: at dvUT [1], the Kd is 2300 ± 140 µM. The compound also came in with an IC50 on dvUT [2] of 2300 ± 700 µM.
In general, inhibition refers to the relative decrease from the control value, in per cent. As to `O=C(CCc1ccc(O)cc1)c1c(O)cc(O)cc1O` [phloretin], the inhibition at 1000 µM at dvUT [3] was 87%; on human UT-B, 86%.

The values above are taken from article PMC2871279 (Nature, 2009).
